Reference: PubChem BioAssay (NCI)
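Interpolation was linear, between the two tested concentrations surrounding the appropriate level; five concentrations were tested over 48 hours in 96-well plates. GI50 = concentration required for 50% inhibition of growth. TGI: concentration producing complete growth inhibition.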

Legend:
Assay in all cases: NCI-60 cell line screen, 48 h
CAKI-1 renal = system: CAKI-1 renal
NCI/ADR-RES ovarian = system: NCI/ADR-RES ovarian
A549 NSCLC = system: A549 NSCLC
SK-MEL-5 melanoma = system: SK-MEL-5 melanoma
NCI-H226 lung = system: NCI-H226 lung
RXF 393 renal = system: RXF 393 renal
RPMI-8226 leukemia = system: RPMI-8226 leukemia
MDA-MB-435 = system: MDA-MB-435

CC(C)c1ccc2nc3ccc(C(=O)NCCN(C)C)cn3c(=O)c2c1
TGI (CAKI-1 renal): 45 µM
TGI (NCI/ADR-RES ovarian): 62.9 µM
TGI (A549 NSCLC): 34.7 µM
TGI (SK-MEL-5 melanoma): 24.8 µM
TGI (NCI-H226 lung): 37.1 µM

CNC(=O)Nc1ccc(-c2nc(N3CCOCC3)nc3c2cnn3C2CCOCC2)cc1
GI50 (RXF 393 renal): 0.14 µM
TGI (RXF 393 renal): 0.812 µM
GI50 (CAKI-1 renal): 0.227 µM
TGI (CAKI-1 renal): 2.62 µM
GI50 (RPMI-8226 leukemia): 0.205 µM
GI50 (NCI/ADR-RES ovarian): 0.511 µM
TGI (NCI/ADR-RES ovarian): > 22.5 µM
GI50 (A549 NSCLC): 0.204 µM
TGI (A549 NSCLC): 2.71 µM
GI50 (MDA-MB-435): 0.168 µM
TGI (MDA-MB-435): 0.821 µM
GI50 (SK-MEL-5 melanoma): 0.208 µM
TGI (SK-MEL-5 melanoma): 1.22 µM
GI50 (NCI-H226 lung): 0.125 µM
TGI (NCI-H226 lung): 4.26 µM

CC1(C)CCC(C)(C)c2cc(C(=O)Nc3ccc(C(=O)O)cc3)ccc21
TGI (RXF 393 renal): > 42 µM
TGI (CAKI-1 renal): 37.2 µM
TGI (RPMI-8226 leukemia): 57.7 µM
TGI (NCI/ADR-RES ovarian): 47.3 µM
TGI (A549 NSCLC): > 75.1 µM
TGI (MDA-MB-435): > 74.3 µM
TGI (SK-MEL-5 melanoma): > 56 µM
TGI (NCI-H226 lung): > 65.5 µM

Clc1ccccc1NN(Cc1ccccn1)c1ccccc1Cl
TGI (RXF 393 renal): 29.2 µM
TGI (CAKI-1 renal): 91.9 µM
TGI (RPMI-8226 leukemia): 61.4 µM
TGI (NCI/ADR-RES ovarian): 47.7 µM
TGI (A549 NSCLC): 37.2 µM
TGI (MDA-MB-435): 34.9 µM
TGI (SK-MEL-5 melanoma): 27.9 µM
TGI (NCI-H226 lung): 31.6 µM

COc1cc(-c2oc3ccccc3c(=O)c2O)cc(OC)c1OC
TGI (RXF 393 renal): 42.6 µM
TGI (CAKI-1 renal): > 100 µM
TGI (RPMI-8226 leukemia): > 100 µM
TGI (NCI/ADR-RES ovarian): > 100 µM
TGI (A549 NSCLC): > 100 µM
TGI (MDA-MB-435): > 100 µM
TGI (SK-MEL-5 melanoma): > 100 µM

COc1ccc(-n2nnc3c(sc4ccccc43)c2=O)cc1
GI50 (RPMI-8226 leukemia): > 100 µM
TGI (RPMI-8226 leukemia): > 100 µM
GI50 (NCI/ADR-RES ovarian): > 100 µM
TGI (NCI/ADR-RES ovarian): > 100 µM
GI50 (MDA-MB-435): > 100 µM
TGI (MDA-MB-435): > 100 µM
GI50 (SK-MEL-5 melanoma): > 100 µM
TGI (SK-MEL-5 melanoma): > 100 µM

Nc1cc(N)c2nc(-c3ccccc3)c(Oc3ccc(F)cc3)nc2c1
GI50 (RXF 393 renal): 21.1 µM
TGI (RXF 393 renal): 46.5 µM
GI50 (CAKI-1 renal): 19.4 µM
TGI (CAKI-1 renal): 37 µM
GI50 (RPMI-8226 leukemia): 12.2 µM
TGI (RPMI-8226 leukemia): 46.4 µM
GI50 (NCI/ADR-RES ovarian): 18.2 µM
TGI (NCI/ADR-RES ovarian): 36.1 µM
GI50 (A549 NSCLC): 24.2 µM
TGI (A549 NSCLC): 46.3 µM
GI50 (MDA-MB-435): 15.8 µM
TGI (MDA-MB-435): 32.6 µM
GI50 (SK-MEL-5 melanoma): 12.2 µM
TGI (SK-MEL-5 melanoma): 31.8 µM
GI50 (NCI-H226 lung): 20.3 µM
TGI (NCI-H226 lung): 49.1 µM

COc1ccc(Cl)cc1Nc1nc(C(F)(F)F)ccc1C(=O)NN
GI50 (RXF 393 renal): 1.68 µM
TGI (RXF 393 renal): > 21.4 µM
GI50 (CAKI-1 renal): 2.74 µM
TGI (CAKI-1 renal): 22.7 µM
GI50 (RPMI-8226 leukemia): 1.91 µM
TGI (RPMI-8226 leukemia): 13.3 µM
GI50 (NCI/ADR-RES ovarian): 2.3 µM
TGI (NCI/ADR-RES ovarian): > 22.5 µM
GI50 (A549 NSCLC): 18.4 µM
TGI (A549 NSCLC): > 100 µM
GI50 (MDA-MB-435): 9.08 µM
TGI (MDA-MB-435): > 100 µM
GI50 (SK-MEL-5 melanoma): 5.8 µM
TGI (SK-MEL-5 melanoma): > 20.4 µM
GI50 (NCI-H226 lung): 3.62 µM
TGI (NCI-H226 lung): > 100 µM

NS(=O)(=O)c1ccc(N2Cc3cc(Cl)ccc3OC3=C2C(=O)N(CC2CCCCC2)C3=O)cc1
GI50 (RXF 393 renal): 0.495 µM
TGI (RXF 393 renal): 1.77 µM
GI50 (CAKI-1 renal): 1.24 µM
TGI (CAKI-1 renal): 2.55 µM
GI50 (RPMI-8226 leukemia): 0.227 µM
TGI (RPMI-8226 leukemia): 0.575 µM
GI50 (NCI/ADR-RES ovarian): 1.74 µM
TGI (NCI/ADR-RES ovarian): 5.05 µM
GI50 (A549 NSCLC): 2.13 µM
TGI (A549 NSCLC): 3.99 µM
GI50 (MDA-MB-435): 0.903 µM
TGI (MDA-MB-435): 2.23 µM
GI50 (SK-MEL-5 melanoma): 1.77 µM
TGI (SK-MEL-5 melanoma): 3.25 µM
GI50 (NCI-H226 lung): 1.54 µM
TGI (NCI-H226 lung): 3.6 µM

COc1ccc(-c2cc(-c3ccc(Cl)cc3)c(C#N)c(=O)n2CCCCC(=O)Nc2ccccc2N)cc1
GI50 (RXF 393 renal): 1.69 µM
TGI (RXF 393 renal): 6.89 µM
GI50 (CAKI-1 renal): 2.52 µM
TGI (CAKI-1 renal): 20.2 µM
GI50 (RPMI-8226 leukemia): 0.789 µM
TGI (RPMI-8226 leukemia): 6.68 µM
GI50 (NCI/ADR-RES ovarian): 4.09 µM
TGI (NCI/ADR-RES ovarian): > 100 µM
GI50 (A549 NSCLC): 4.94 µM
TGI (A549 NSCLC): > 100 µM
GI50 (MDA-MB-435): 5.8 µM
TGI (MDA-MB-435): > 100 µM
GI50 (SK-MEL-5 melanoma): 2.05 µM
TGI (SK-MEL-5 melanoma): 4.48 µM
GI50 (NCI-H226 lung): 6.26 µM
TGI (NCI-H226 lung): 70.9 µM

COc1ccc2nc(-c3ccccc3)cc(Nc3cccc(/C(C)=N\O)c3)c2c1
GI50 (CAKI-1 renal): 3.23 µM
TGI (CAKI-1 renal): 12.9 µM
GI50 (RPMI-8226 leukemia): 4.89 µM
TGI (RPMI-8226 leukemia): > 100 µM
GI50 (NCI/ADR-RES ovarian): 6.35 µM
TGI (NCI/ADR-RES ovarian): > 100 µM
GI50 (A549 NSCLC): 4.67 µM
TGI (A549 NSCLC): > 100 µM
GI50 (MDA-MB-435): 2.5 µM
TGI (MDA-MB-435): 7.96 µM
GI50 (SK-MEL-5 melanoma): 13.2 µM
TGI (SK-MEL-5 melanoma): 41 µM
GI50 (NCI-H226 lung): 3.18 µM
TGI (NCI-H226 lung): 11.1 µM

COc1cc(-c2csc(NC(=O)c3cc(C(F)(F)F)cc(C(F)(F)F)c3)n2)cc(OC)c1OC
GI50 (RXF 393 renal): 1.96 µM
TGI (RXF 393 renal): 8.94 µM
GI50 (CAKI-1 renal): 2.63 µM
TGI (CAKI-1 renal): > 100 µM
GI50 (RPMI-8226 leukemia): 1.38 µM
TGI (RPMI-8226 leukemia): 4.05 µM
GI50 (A549 NSCLC): 2.58 µM
TGI (A549 NSCLC): > 100 µM
GI50 (MDA-MB-435): 2.67 µM
TGI (MDA-MB-435): > 100 µM
GI50 (SK-MEL-5 melanoma): 1.47 µM
TGI (SK-MEL-5 melanoma): 3.11 µM

COC(=O)C1=C(OC(=O)c2ccc(Cl)cc2)C(C(=O)OC)[C@@]2(O)[C@@H](C(=O)OC)C(c3ccccc3C(F)(F)F)C[C@@H]1[C@@H]2C(=O)OC (some centres not stated)
GI50 (RXF 393 renal): 2.14 µM
TGI (RXF 393 renal): 5.43 µM
GI50 (CAKI-1 renal): 13.9 µM
TGI (CAKI-1 renal): 36.1 µM
GI50 (RPMI-8226 leukemia): 2.99 µM
TGI (RPMI-8226 leukemia): > 100 µM
GI50 (NCI/ADR-RES ovarian): 3.11 µM
TGI (NCI/ADR-RES ovarian): > 100 µM
GI50 (A549 NSCLC): 3.59 µM
TGI (A549 NSCLC): 28.8 µM
GI50 (MDA-MB-435): 17.6 µM
TGI (MDA-MB-435): 50.2 µM
GI50 (SK-MEL-5 melanoma): 3.46 µM
TGI (SK-MEL-5 melanoma): 12.4 µM

Cc1cccc(NC(=O)c2sc3nc4c(cc3c2N)CCCC4)c1C
GI50 (RXF 393 renal): 0.233 µM
TGI (RXF 393 renal): 0.733 µM
GI50 (CAKI-1 renal): 0.491 µM
TGI (CAKI-1 renal): > 100 µM
GI50 (RPMI-8226 leukemia): 0.354 µM
TGI (RPMI-8226 leukemia): > 100 µM
GI50 (A549 NSCLC): 0.612 µM
TGI (A549 NSCLC): > 100 µM
GI50 (MDA-MB-435): 0.115 µM
TGI (MDA-MB-435): 0.391 µM
GI50 (SK-MEL-5 melanoma): 0.399 µM
TGI (SK-MEL-5 melanoma): > 100 µM
GI50 (NCI-H226 lung): 1.44 µM
TGI (NCI-H226 lung): > 25.1 µM

O=c1oc2ccccc2c(O)c1C=NC(=S)c1ccncc1
TGI (CAKI-1 renal): > 100 µM
TGI (NCI/ADR-RES ovarian): > 100 µM
TGI (A549 NSCLC): > 100 µM
TGI (MDA-MB-435): > 100 µM
TGI (SK-MEL-5 melanoma): > 100 µM
TGI (NCI-H226 lung): > 100 µM

C[n+]1cc2c3c(ccc2c2ccc4cc5c(cc4c21)OCO5)OCO3
GI50 (RXF 393 renal): 0.351 µM
TGI (RXF 393 renal): 1.32 µM
GI50 (CAKI-1 renal): 0.735 µM
TGI (CAKI-1 renal): 2.13 µM
GI50 (RPMI-8226 leukemia): 0.365 µM
TGI (RPMI-8226 leukemia): 1.88 µM
GI50 (A549 NSCLC): 0.322 µM
TGI (A549 NSCLC): 1.15 µM
GI50 (MDA-MB-435): 0.317 µM
TGI (MDA-MB-435): 1.11 µM
GI50 (SK-MEL-5 melanoma): 1.16 µM
TGI (SK-MEL-5 melanoma): 2.39 µM
GI50 (NCI-H226 lung): 1.54 µM
TGI (NCI-H226 lung): 2.98 µM

CON(C)C(=O)C(C)NC(=O)OCc1ccccc1 (configuration not stated)
TGI (RXF 393 renal): > 100 µM
TGI (RPMI-8226 leukemia): > 100 µM
TGI (NCI/ADR-RES ovarian): > 100 µM
TGI (A549 NSCLC): > 100 µM
TGI (MDA-MB-435): > 100 µM
TGI (SK-MEL-5 melanoma): > 100 µM
TGI (NCI-H226 lung): > 100 µM

O=C(c1ccccc1)c1c(CC(O)c2cccnc2)n(C(=O)c2ccccc2)c2ccccc12 (configuration not stated)
TGI (CAKI-1 renal): 70.6 µM
TGI (RPMI-8226 leukemia): 44.2 µM
TGI (A549 NSCLC): > 100 µM
TGI (SK-MEL-5 melanoma): 31 µM
TGI (NCI-H226 lung): 24.6 µM

Cc1cc([N+](=O)[O-])c(C)c2c1[nH]c1ccc(/C(CCC3CCCC3)=N\N)cc12
TGI (RPMI-8226 leukemia): 62.2 µM
TGI (A549 NSCLC): 34.2 µM
TGI (SK-MEL-5 melanoma): 37.7 µM
TGI (NCI-H226 lung): 41.5 µM

CC(C)(C)OC(=O)NCC(C#N)CNC(=O)OC(C)(C)C
TGI (RXF 393 renal): > 100 µM
TGI (RPMI-8226 leukemia): > 100 µM
TGI (NCI/ADR-RES ovarian): > 100 µM
TGI (A549 NSCLC): > 100 µM
TGI (MDA-MB-435): > 100 µM
TGI (SK-MEL-5 melanoma): > 100 µM
TGI (NCI-H226 lung): > 100 µM
